Results from PMC6282425 (Pharmaceutical Biology, 2018).

Experiments:
[1] = biological target: T1, CYP2C8 (Homo sapiens, UniProt P10632); test: CYP2C8 inhibition in human liver microsomes (paclitaxel 6α-hydroxylation); format: in vitro ADME; settings: 100 μM bergenin, pooled HLMs
T1 construct: from tissue; host or cells: pooled human liver microsomes
T1 sequence (P10632 1-490): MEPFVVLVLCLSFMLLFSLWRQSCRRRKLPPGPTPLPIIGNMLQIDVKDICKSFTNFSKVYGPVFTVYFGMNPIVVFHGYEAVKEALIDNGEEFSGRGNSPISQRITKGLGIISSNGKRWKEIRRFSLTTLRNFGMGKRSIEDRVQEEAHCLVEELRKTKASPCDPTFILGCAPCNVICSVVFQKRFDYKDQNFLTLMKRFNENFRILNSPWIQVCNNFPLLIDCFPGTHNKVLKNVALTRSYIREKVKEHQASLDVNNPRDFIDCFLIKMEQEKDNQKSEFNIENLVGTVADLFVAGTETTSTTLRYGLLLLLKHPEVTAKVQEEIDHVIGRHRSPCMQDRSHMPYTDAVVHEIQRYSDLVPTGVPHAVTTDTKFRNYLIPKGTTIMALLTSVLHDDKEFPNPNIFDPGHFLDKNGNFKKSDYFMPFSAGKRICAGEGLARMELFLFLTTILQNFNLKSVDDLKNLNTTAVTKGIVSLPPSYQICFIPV
Protocol: (§1) All incubations were performed in triplicate, and the mean values were utilized.
(§2) There was a 3 min pre-incubation period (at 37 °C) before the reaction was initiated by adding an NADPH-generating system. The reaction was terminated by adding a 100 μL acetonitrile (10% trichloroacetic acid for CYP2A6) internal standard mix, and the solution was placed on ice. The mixture was centrifuged at 12,000 rpm for 10 min, and an aliquot (50 μL) of the supernatant was transferred for HPLC analysis. The instrument used in this study were Agilent 1260 series instrument (Palo Alto, CA, USA) with DAD and FLD detector, and the quantitative assay for the corresponding metabolites was performed as previously reported (Lang et al. [2017]; Zhang et al. [2017]).

[2] = biological target: T2, CYP2E1 (Homo sapiens, UniProt P05181); test: Time-dependent inhibition study in HLMs, CYP2E1; format: in vitro ADME; settings: bergenin 20 μM, pre-incubation with HLM and NADPH for 30 min
T2 construct: CYP2E1 catalyzed reactions (chlorzoxazone 6-hydroxylation) in pooled HLM; from tissue; host or cells: pooled human liver microsomes
Protocol: (§3) After incubation, an aliquot (20 μL) was transferred to another incubation tube (final volume 200 μL) containing an NADPH-generating system and probe substrates whose final concentrations were approximate to Km. Then, further incubations were performed to measure the residual activity. After being incubated for different time (30 min for CYP2E1 and CYP2C9, 10 min for CYP3A4), the reactions were terminated by adding a 100 μL acetonitrile internal standard mix and then placed on ice; the corresponding metabolites were determined by HPLC.

[3] = biological target: CYP2D6 (Homo sapiens, UniProt P10635); test: CYP2D6 inhibition in human liver microsomes (dextromethorphan O-demethylation); format: in vitro ADME; settings: 100 μM bergenin, pooled HLMs
Protocol: as §1, §2

[4] = biological target: T3, CYP2C9 (Homo sapiens, UniProt P11712); test: Time-dependent inhibition study in HLMs, CYP2C9; format: in vitro ADME; settings: bergenin 20 μM, pre-incubation with HLM and NADPH for 30 min
Protocol: as §3

[5] = biological target: CYP1A2 (Homo sapiens, UniProt P05177); test: CYP1A2 inhibition in human liver microsomes (phenacetin O-deethylation); format: in vitro ADME; settings: 100 μM bergenin, pooled HLMs
Protocol: as §1, §2

[6] = biological target: CYP2C19 (Homo sapiens, UniProt P33261); test: CYP2C19 inhibition in human liver microsomes (S-mephenytoin 4-hydroxylation); format: in vitro ADME; settings: 100 μM bergenin, pooled HLMs
Protocol: as §1, §2

[7] = biological target: T4, CYP2A6 (Homo sapiens, UniProt P11509); test: CYP2A6 inhibition in human liver microsomes (coumarin 7-hydroxylation); format: in vitro ADME; settings: 100 μM bergenin, pooled HLMs
T4 construct: from tissue; host or cells: pooled human liver microsomes
T4 sequence (P11509 1-494): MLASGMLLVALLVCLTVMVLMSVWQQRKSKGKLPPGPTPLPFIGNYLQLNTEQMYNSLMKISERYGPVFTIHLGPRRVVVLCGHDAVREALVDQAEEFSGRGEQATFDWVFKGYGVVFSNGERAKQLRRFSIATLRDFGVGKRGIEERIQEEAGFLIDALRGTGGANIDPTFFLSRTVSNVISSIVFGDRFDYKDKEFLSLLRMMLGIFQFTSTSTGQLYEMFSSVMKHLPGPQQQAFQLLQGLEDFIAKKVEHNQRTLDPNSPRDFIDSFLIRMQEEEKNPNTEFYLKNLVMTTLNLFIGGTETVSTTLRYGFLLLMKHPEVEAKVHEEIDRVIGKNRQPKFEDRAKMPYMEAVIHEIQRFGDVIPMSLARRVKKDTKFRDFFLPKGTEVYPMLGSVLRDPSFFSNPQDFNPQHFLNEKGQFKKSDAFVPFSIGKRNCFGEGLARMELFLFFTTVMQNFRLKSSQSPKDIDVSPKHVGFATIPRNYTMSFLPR
Protocol: as §1, §2

[8] = biological target: T5, CYP3A4 (Homo sapiens, UniProt P08684); test: CYP3A4 inhibition in human liver microsomes (testosterone 6β-hydroxylation); format: in vitro ADME
Protocol: as §1, §2
The enzyme kinetic parameters for the probe reaction were estimated from the best fit line using least-squares linear regression of the inverse substrate concentration versus the inverse velocity (Lineweaver–Burk plots), and the mean values were used to calculate Vmax and Km. […]

[9] = biological target: T3, CYP2C9; test: CYP2C9 inhibition in human liver microsomes (diclofenac 4′-hydroxylation); format: in vitro ADME; settings: pooled HLMs
Protocol: as §1, §2
(§4) The enzyme kinetic parameters for the probe reaction were estimated from the best fit line using least-squares linear regression of the inverse substrate concentration versus the inverse velocity (Lineweaver–Burk plots), and the mean values were used to calculate Vmax and Km. Inhibition data from the experiments that were conducted using multiple compound concentrations were represented by Dixon plots, and inhibition constant (Ki) values were calculated using non-linear regression according to the following equation: v = (VmaxS)/(Km(1 + I/Ki) + S), where I is the concentration of the compound, Ki is the inhibition constant, S is the concentration of the substrate and Km is the substrate concentration at half the maximum velocity (Vmax) of the reaction. The mechanism of the inhibition was inspected using the Lineweaver–Burk plots and the enzyme inhibition models. The data comparison was performed using the Student’s t-test and performed using IBM SPSS statistics 20 (SPSS Inc., Chicago, IL).

[10] = biological target: T5, CYP3A4; test: Time-dependent inhibition study in HLMs, CYP3A4; format: in vitro ADME
Protocol: as §3
Figure 7. […] The initial rate constant of inactivation of CYP3A4 by each concentration (Kobs) was determined through linear regression analysis of the natural logarithm of the percentage of remaining activity versus pre-incubation time (A).

[11] = biological target: T2, CYP2E1; test: CYP2E1 inhibition in human liver microsomes (chlorzoxazone 6-hydroxylation); format: in vitro ADME
Protocol: as §1, §2, §4

[12] = design: method as in Pan et al. [2016]; settings: rats, oral dose 100 mg/kg, ref Pan et al. [2016], cited from earlier work
[13] = Lineweaver–Burk plots, pooled HLMs

T3 sequence (P11712 whole entry): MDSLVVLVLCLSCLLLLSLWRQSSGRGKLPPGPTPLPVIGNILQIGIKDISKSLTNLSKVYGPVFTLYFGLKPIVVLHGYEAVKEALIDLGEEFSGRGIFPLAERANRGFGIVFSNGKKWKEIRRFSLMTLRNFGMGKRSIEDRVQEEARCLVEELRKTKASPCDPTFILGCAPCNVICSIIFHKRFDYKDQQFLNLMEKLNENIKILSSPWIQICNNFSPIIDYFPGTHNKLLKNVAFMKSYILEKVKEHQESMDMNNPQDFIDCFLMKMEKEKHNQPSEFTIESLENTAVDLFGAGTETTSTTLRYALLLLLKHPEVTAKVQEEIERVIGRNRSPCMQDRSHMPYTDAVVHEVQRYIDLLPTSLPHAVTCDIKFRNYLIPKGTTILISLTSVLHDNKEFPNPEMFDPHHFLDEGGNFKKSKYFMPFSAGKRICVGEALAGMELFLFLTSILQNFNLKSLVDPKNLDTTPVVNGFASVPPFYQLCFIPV
T5 sequence (P08684 whole entry): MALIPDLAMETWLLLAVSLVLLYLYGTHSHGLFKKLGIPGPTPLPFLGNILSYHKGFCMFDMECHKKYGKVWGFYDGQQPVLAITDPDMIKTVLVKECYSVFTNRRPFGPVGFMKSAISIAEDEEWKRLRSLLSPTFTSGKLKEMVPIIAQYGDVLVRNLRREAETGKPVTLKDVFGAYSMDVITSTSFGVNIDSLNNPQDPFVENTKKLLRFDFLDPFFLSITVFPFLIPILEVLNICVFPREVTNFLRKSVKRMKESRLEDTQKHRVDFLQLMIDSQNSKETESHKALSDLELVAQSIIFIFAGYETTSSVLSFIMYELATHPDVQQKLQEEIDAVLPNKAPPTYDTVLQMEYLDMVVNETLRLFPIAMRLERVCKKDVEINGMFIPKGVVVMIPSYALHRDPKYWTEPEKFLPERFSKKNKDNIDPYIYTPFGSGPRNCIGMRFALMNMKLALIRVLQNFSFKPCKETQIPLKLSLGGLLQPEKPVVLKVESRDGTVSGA
T2 sequence (P05181 whole entry): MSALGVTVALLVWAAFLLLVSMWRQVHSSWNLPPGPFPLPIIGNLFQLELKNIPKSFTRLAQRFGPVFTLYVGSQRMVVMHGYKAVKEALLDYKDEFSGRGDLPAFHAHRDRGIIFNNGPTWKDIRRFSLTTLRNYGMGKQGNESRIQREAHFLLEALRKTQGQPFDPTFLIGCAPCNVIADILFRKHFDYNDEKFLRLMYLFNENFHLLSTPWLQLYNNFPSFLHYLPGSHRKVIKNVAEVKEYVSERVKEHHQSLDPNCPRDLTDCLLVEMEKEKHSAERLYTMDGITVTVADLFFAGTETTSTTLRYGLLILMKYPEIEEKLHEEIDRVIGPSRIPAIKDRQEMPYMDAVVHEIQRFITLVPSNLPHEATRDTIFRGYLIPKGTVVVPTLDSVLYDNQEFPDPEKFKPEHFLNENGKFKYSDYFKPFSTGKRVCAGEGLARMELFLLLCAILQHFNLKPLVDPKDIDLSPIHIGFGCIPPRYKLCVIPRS
Chain of CYP1A2 (P05177 whole entry): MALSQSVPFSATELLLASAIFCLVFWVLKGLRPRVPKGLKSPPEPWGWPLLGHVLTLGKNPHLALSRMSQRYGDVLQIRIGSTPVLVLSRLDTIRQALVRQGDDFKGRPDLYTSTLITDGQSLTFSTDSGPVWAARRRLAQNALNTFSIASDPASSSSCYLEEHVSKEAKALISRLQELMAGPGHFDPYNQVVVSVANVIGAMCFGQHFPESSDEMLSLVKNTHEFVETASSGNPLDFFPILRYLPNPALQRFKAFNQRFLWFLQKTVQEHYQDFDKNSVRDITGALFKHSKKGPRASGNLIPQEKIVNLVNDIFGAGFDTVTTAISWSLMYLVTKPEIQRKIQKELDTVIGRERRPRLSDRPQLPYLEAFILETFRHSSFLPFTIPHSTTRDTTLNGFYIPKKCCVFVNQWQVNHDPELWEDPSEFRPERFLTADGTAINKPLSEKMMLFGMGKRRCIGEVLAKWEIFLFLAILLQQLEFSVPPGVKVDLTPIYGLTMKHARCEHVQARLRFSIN
Chain of CYP2D6 (P10635 whole entry): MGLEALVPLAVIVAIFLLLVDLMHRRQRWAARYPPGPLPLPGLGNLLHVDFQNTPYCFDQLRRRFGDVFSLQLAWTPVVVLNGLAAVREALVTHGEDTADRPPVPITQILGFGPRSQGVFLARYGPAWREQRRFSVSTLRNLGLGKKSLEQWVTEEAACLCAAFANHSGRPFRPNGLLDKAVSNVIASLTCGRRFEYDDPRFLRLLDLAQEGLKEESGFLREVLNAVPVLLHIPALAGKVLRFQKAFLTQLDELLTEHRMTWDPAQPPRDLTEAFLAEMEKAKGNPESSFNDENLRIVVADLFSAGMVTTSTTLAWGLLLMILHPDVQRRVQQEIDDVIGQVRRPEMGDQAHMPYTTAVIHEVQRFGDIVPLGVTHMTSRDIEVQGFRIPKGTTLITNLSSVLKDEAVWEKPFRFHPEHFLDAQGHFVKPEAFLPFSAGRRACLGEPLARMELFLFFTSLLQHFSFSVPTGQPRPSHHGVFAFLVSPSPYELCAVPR
Chain of CYP2C19 (P33261 whole entry): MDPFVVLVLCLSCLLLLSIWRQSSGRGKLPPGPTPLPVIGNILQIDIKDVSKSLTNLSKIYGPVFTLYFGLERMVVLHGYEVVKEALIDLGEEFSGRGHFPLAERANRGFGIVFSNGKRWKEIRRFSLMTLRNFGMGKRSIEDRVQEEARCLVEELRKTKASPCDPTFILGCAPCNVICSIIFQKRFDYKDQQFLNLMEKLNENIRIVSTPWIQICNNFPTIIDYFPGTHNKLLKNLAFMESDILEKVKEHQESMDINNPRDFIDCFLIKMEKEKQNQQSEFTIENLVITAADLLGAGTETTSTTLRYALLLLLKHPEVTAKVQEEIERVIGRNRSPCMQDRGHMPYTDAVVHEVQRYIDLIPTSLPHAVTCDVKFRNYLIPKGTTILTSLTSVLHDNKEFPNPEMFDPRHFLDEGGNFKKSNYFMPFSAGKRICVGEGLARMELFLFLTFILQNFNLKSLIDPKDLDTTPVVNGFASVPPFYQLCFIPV

COc1c(O)cc2c(c1O)[C@@H]1O[C@H](CO)[C@@H](O)[C@H](O)[C@H]1OC2=O [bergenin, Bergenin]
Inhibition of CYP2C8 activity [1]: did not inhibit | Time-dependent inhibition, activity of CYP2E1 [2]: not affected | Inhibition of CYP2D6 activity [3]: did not inhibit | Time-dependent inhibition, activity of CYP2C9 [4]: not affected | Inhibition of CYP1A2 activity [5]: did not inhibit | Inhibition of CYP2C19 activity [6]: did not inhibit | Inhibition of CYP2A6 activity [7]: did not inhibit | Inhibition mode CYP3A4 [8, 13]: non-competitive | activity at 100 μM ([8]; human, pooled human liver microsomes, pH 7.4, probe testosterone (6β-hydroxylation), read-out: CYP3A4 activity, % of control activity): 11% | Inhibition mode CYP2C9 ([9]; Lineweaver–Burk plots): competitive | IC50 ([9]; diclofenac 4′-hydroxylation): 15.1 µM | Ki ([9]; secondary Lineweaver–Burk plot, diclofenac 2–20 μM): 8.89 µM | Time-dependent inhibition, activity of CYP3A4 ([10]; bergenin 20 μM, pre-incubation with HLM and NADPH for 30 min): decreased with the incubation time | CYP3A4 inactivated each minute ([10]; saturating concentration of bergenin incubated with HLM, implied by Kinact): approximately 2.5% | Inhibition mode CYP2E1 [11, 13]: competitive | activity at 100 μM ([11]; human, pooled human liver microsomes, pH 7.4, probe chlorzoxazone (6-hydroxylation), read-out: CYP2E1 activity, % of control activity): 12.2% | IC50 ([11]; pooled HLMs, chlorzoxazone 6-hydroxylation): 22.8 µM | Ki ([11]; pooled HLMs, secondary Lineweaver–Burk plot, chlorzoxazone 25–200 μM): 11.4 µM | Plasma Cmax [12]: less than 300 ng/mL | Cmax ([12]; read-out: Plasma Cmax): < 900 nM
